Reference: patent publication US20260335265A1, “ANTICANCER COMPOSITION COMPRISING MALATE METAL SALT” (BIOSOLYX, priority 2022, published 2026)

Tests used:
[1] = system: NAD^+ in liver cancer (HepG2), breast cancer (MDA-MB-231), or lung cancer (H1975) cells; assay: NAD^+ levels in treated cancer cells (NAD^+ assay kit); type: cell-based; conditions: HepG2, MDA-MB-231, H1975 cells, CaMal 5 mM, CaMal2 2.5 mM, CaMal-DCA 1 mM, 48 hours, vs untreated controls, p<0.001 (FIG. 2)
Procedure: 1×10^6 liver cancer (HepG2), breast cancer (MDA-MB-231), or lung cancer (H 1975) cells were treated with CaMal of 5 mM, CaMal2 of 2.5 mM, or CaMal-DCA of 1 mM for 48 hours, respectively. Then, NAD^+ levels were then analyzed according to the method of Abcam's NAD^+ assay kit.

[2] = system: kidney cancer (Caki-1) cells; assay: Cancer cell survival rate (MTT reagent, absorbance); type: cell-based; conditions: 0.5, 1, 2.5, or 5 mM, 96 hours, p<0.001 vs lower-concentration groups (FIG. 5)
Procedure: (§1) 3×10^3 kidney cancer (Caki-1) or pancreatic cancer (Aspc-1) cells were incubated for 24 hours and then treated with CaMal2 of 0.5, 1, 2.5, or 5 mM and incubated for 96 hours again. Then, 3-(4,5-dimethylthiazol-2-yl)-2,5-diphenyltetrazolium bromide reagent of 10 μl was added to each well and reacted for 1 hour. After removing the reagent at the end of the reaction, DMSO 200 of μl was added to each well and the absorbance was measured to confirm the survival rate of the cells.

[3] = system: pancreatic cancer (Aspc-1) cells; assay: as above; type: cell-based; conditions: 0.5, 1, 2.5, or 5 mM, 96 hours, p<0.001 vs lower-concentration groups (FIGS. 5, 6)
Procedure: as §1
(§2) 3×10^3 liver cancer (HepG2), lung cancer (H1975), pancreatic cancer (Aspc-1), or breast cancer (MDA-MB-231) cells were cultured for 24 hours and then treated with CaMal-DCA of 0.5, 1, 2.5, or 5 mM and incubated for another 96 hours. Then, 3-(4,5-dimethylthiazol-2-yl)-2,5-diphenyltetrazolium bromide reagent of 10 μl was added to each well and reacted for 1 hour. After removing the reagent at the end of the reaction, DMSO of 200 μl was added to each well and the absorbance was measured to confirm the survival rate of the cells.

[4] = system: liver cancer (HepG2) cells; assay: Tumor growth inhibition in liver cancer xenograft mice; type: in vivo, Athymic Balb/c nude mice; conditions: 80 mg/kg orally five times a week; 30 days; vs untreated controls; p<0.001 (FIG. 11)
Procedure: 1×10^7 liver cancer (HepG2) cells were implanted with Athymic Balb/c nude mice and when they grew to approximately 200 mm^3, CaMal2 of 80 mg/kg was administered orally five times a week to observe tumor growth for 30 days.

[5] = system: Malate dehydrogenase 2 (MDH2); assay: Malate dehydrogenase 2 (MDH2) level by ELISA in treated cancer cells; type: cell-based
Procedure: (§3) 1×10^6 liver cancer (HepG2), breast cancer (MDA-MB-231), or lung cancer (H1975) cells were treated with calcium malate (CaMal) of 5 mM, calcium dimalate (CaMal2) of 2.5 mM, or calcium malate-dichloroacetic acid (CaMal-DCA) of 1 mM for 48 hours, respectively. After that, proteins were then extracted using RIPA buffer. Biorbyt's Malate dehydrogenase 2 (MDH2), Malic enzyme 2 (ME2) and Malic enzyme 3 (ME3) ELISA assay kits were utilized to quantitatively analyze the respective factors in the above extracted proteins.

Malic enzyme 2 (ME2) = Malic enzyme 2 (ME2) level by ELISA in treated cancer cells; type: cell-based
Procedure: as §3

Malic enzyme 3 (ME3) = Malic enzyme 3 (ME3) level by ELISA in treated cancer cells; type: cell-based
Procedure: as §3

beta cells = assay: Insulin levels in culture medium of pancreatic beta cells; type: cell-based; conditions: CaMal 5 mM or CaMal2 2.5 mM, 48 hours
Procedure: 1×10^6 beta cells were treated with CaMal of 5 mM or CaMal2 of 2.5 mM for 48 hours in the absence or presence of glucose of 5 mM, respectively, and a culture medium was harvested. The medium was placed in a spin concentrator (Corning, Inc.) and run at 7,500 g for 10 minutes to obtain insulin assay samples. The samples were quantitatively analyzed using an assay kit manufactured by Enzo company.

[6] = system: brain cancer (U-87MG) cells; assay: Cancer cell survival rate (MTT reagent, absorbance); type: cell-based; conditions: 0.5, 1, 2.5, or 5 mM, 96 hours, p<0.001 vs 0.5, 1, and 2.5 mM groups (FIG. 4)
Procedure: (§4) 3×10^3 colon cancer (HCT-116) or brain cancer (U-87MG) cells were incubated for 24 hours and then treated with CaMal of 0.5, 1, 2.5, or 5 mM and incubated for another 96 hours. Then, 3-(4,5-dimethylthiazol-2-yl)-2,5-diphenyltetrazolium bromide reagent of 10 μl was added to each well and reacted for 1 hour. After removing the reagent at the end of the reaction, DMSO of 200 μl was added to each well and then the absorbance was measured to confirm a survival rate of the cells.

[7] = system: colon cancer (HCT-116) cells; assay: as above; type: cell-based; conditions: 0.5, 1, 2.5, or 5 mM, 96 hours, p<0.001 vs 0.5, 1, and 2.5 mM groups (FIG. 4)
Procedure: as §4

[8] = system: pancreatic cancer (Aspc-1) cells; assay: Tumor growth inhibition in pancreatic cancer xenograft mice; type: in vivo, Athymic Balb/c nude mice; conditions: 20 mg/kg subcutaneously twice a week; 30 days; vs untreated controls; p<0.001 (FIG. 10)
Procedure: 1×10^7 pancreatic cancer (Aspc-1) cells were implanted with Athymic Balb/c nude mice and when they grew to approximately 200 mm^3, CaMal of 20 mg/kg was administered subcutaneously twice a week to monitor tumor growth for 30 days.

cancer cells = assay: Death of cancer cells (summary statement); type: cell-based; conditions: summary of FIGS. 4, 5, 10, 11 (calcium malate, calcium di-malate) and FIGS. 6, 12 (calcium malate and DCA)
Procedure: as §4, §1
as §2, with “Then, 3-(4,5-dimethylthiazol-2-yl)-2,5-diphenyltetrazolium bromide reagent of 10 μl was added to each well and reacted for 1 hour.” left out

[9] = HepG2, MDA-MB-231, H1975 cells, CaMal 5 mM, CaMal2 2.5 mM, CaMal-DCA 1 mM, 48 hours, vs untreated controls, p<0.001 (FIG. 1)
[10] = various cancer cell lines (FIG. 1), stated as activity

Compound | levels of NAD^+ ([1]; listed as calcium di-malate) | survival rate of the cancer cells [2] | survival rate of the cancer cells [3] | tumor size [4] | amount of MDH2 [5, 9] | activity of MDH2 [5, 10] | amount of ME2 (Malic enzyme 2 (ME2); [9]) | activity of ME2 / malic enzymes (Malic enzyme 2 (ME2); [10]) | amount of ME3 (Malic enzyme 3 (ME3); [9]) | activity of ME3 / malic enzymes (Malic enzyme 3 (ME3); [10]) | levels of NAD^+ [1] | levels of NAD^+ ([1]; listed as calcium malate) | insulin levels (beta cells; absence of glucose, p<0.001 vs Control (No-glucose) (FIG. 3)) | insulin levels (beta cells; presence of glucose 5 mM, p<0.001 vs Control (Glucose) (FIG. 3)) | survival rate of the cancer cells [6] | survival rate of the cancer cells [7] | tumor size [8] | death of cancer cells (cancer cells)
O=C(O)CC(O)C(=O)O (stereo not drawn) [CaMal2, calcium dimalate] | dramatic exhaustion of NAD^+ | decreased the survival rate of the cancer cells in a concentration-dependent manner | decreased the survival rate of the cancer cells in a concentration-dependent manner | tumor size became reduced visually and clearly |  |  |  |  |  |  |  |  |  |  |  |  |  | 
O=C(O)CC(O)C(=O)O (stereo not drawn) [CaMal, calcium malate] |  |  |  |  | significant increase | significant increase | significant increase | significant increase | significant increase | significant increase | significant decrease | dramatic exhaustion of NAD^+ | significant increase in insulin levels | significant increase in insulin levels | concentration-dependent manner decrease in a survival rate of the cancer cells | concentration-dependent manner decrease in a survival rate of the cancer cells | tumor size became reduced visually and clearly | death of cancer cells
